US9737517B2, “Pharmaceutical use of hexahydro-dibenzo[a,g]quinolizine compounds” (SHANGHAI INSTITUTE OF MATERIA MEDICA, CHINESE ACADEMY OF …, priority 2013, dated 2017)
≈ marks a conversion by molar mass, not a printed value. Like-named read-outs stand apart in the source and are kept apart here.

Assays:
[1] = Stability of the compound on heating; type: physicochemical; conditions: heated at 80° C. for 24 hours
Experimental: Compound DC037009 was heated at 80° C. for 24 hours, and the compound purity only varied 0.5%.

pKa determination = type: physicochemical
[2] = Solubility in different pH solution and pH changes of the solution; type: physicochemical
SD rats = test: Acute toxicity experiment on SD rats by oral gavage; type: in vivo; conditions: single dose of 500 and 1000 mg/kg by oral gavage
Experimental: (§1) SD rats were administered compound DC037009 with single dose of 500 and 1000 mg/kg by oral gavage.

[3] = as above; type: in vivo; conditions: rat, in vivo, single dose, oral gavage, read-out: maximum tolerated dose (MTD)
Experimental: as §1

[4] = In vitro metabolism in rat liver microsomes; type: in vitro ADME
Experimental: (§2) The total volume of each incubation system was 200 μL, and the medium was 100 mM phosphate buffer solution (PBS, pH7.4) comprising a final concentration of 3 μM DC037009 and 2 mM NADPH. A37° C. water bath was used for incubation. After 3 minutes of pre-incubation, various liver microsomes protein were added into the buffer-substrate-cofactors mixture to start reaction. The concentration of liver microsomal protein of various species was 1.0 mg/mL. After reacting 60 min, the reaction was terminated with isovolumetric ice-cold acetonitrile. The total volume of blank was 200 μL, and the medium was 100 mM phosphate buffer solution (PBS, pH 7.4), comprising a final concentration of 3 μM DC037009 and heat inactivated microsomal proteins. All incubation samples were double.
(§3) A 150 μL sample from each of double incubation samples was mixed. A 300 μL of acetonitrile was added, mixed by vortexing for 1 min, and centrifuged 5 min (11000 rpm). The supernatant was placed in a 10 mL tube, and dried in 40° C. with nitrogen stream. The residue was dissolved with 100 μL methanol/water (1:9, v/v). A 10 μL sample was taken for UPLC/Q-TOF MS analysis.

rat seminal vesicle = test: Seminal vesicle contraction caused by electrical stimulation of hypogastric nerve in normal rats; type: in vivo; conditions: P>0.05
Source text: Effect of DC037009 on Seminal Vesicle Contraction Caused by Electrical Stimulation of Hypogastric Nerve in Normal Rats

[5] = In vitro metabolism in human liver microsomes; type: in vitro ADME
Experimental: as §2, §3

[6] = pH = 1 solution after adding compound
[7] = pH = 2 solution after adding compound
[8] = pH = 4 solution after adding compound
[9] = pH = 6 solution after adding compound
[10] = pH = 8 solution after adding compound
[11] = 3 μM DC037009, 1.0 mg/mL microsomal protein, NADPH, 60 min, UPLC/Q-TOF MS

For `COc1cc2c(cc1OC)CN1CCc3cc4c(cc3[C@@H]1C2)OCO4` [DC037009, S-(−)-2,3-methylenedioxy-10,11-dimethoxy-5,8,13,13a-tetrahydro-6H-dibenzo[a,g]quinolizine], the “variation of compound purity” value [1] was 0.5%, the pKa (pKa determination; methanol, solvent CH3OH, read-out: pKa (CH3OH)) was 6.81 and the pKa (pKa determination; water, solvent H2O, read-out: pKa (H2O)) was 7.28. The “pH of solution after adding compound” value [2] was “would increase”, the “solubility in acidic solution compared with alkaline solution” value [2] was “greater than that in alkaline solution” and the solubility ([2]; pH 2 solution, pH 2, simulated gastric fluid, pH = 2 solution, read-out: Solubility (1)) was greater than 1000 µg/mL. For the same compound, the solubility ([2]; pH 2 solution, pH 2, simulated gastric fluid, pH = 2 solution, read-out: Solubility (2)) was greater than 1000 µg/mL, the solubility ([2]; pH 4 solution, pH 4, aqueous buffer, pH = 4 solution, read-out: Solubility (1)) was 401 µg/mL (≈ 1180 µM) and the solubility ([2]; pH 4 solution, pH 4, aqueous buffer, pH = 4 solution, read-out: Solubility (2)) was 403 µg/mL (≈ 1190 µM). The Dissolving capacity ([2]; pH = 1 solution) was “Slightly soluble”, the “pH value (1)” value [2, 6] was 1.09 and the “pH value (2)” value [2, 6] was 1.03. The solubility ([2]; pH = 1 solution, pH 1, simulated gastric fluid, pH = 1 solution, read-out: Solubility (1)) was greater than 1000 µg/mL, the solubility ([2]; pH = 1 solution, pH 1, simulated gastric fluid, pH = 1 solution, read-out: Solubility (2)) was greater than 1000 µg/mL and the Dissolving capacity ([2]; pH = 2 solution) was “Slightly soluble”. The “pH value (1)” value [2, 7] was 2.02, the “pH value (2)” value [2, 7] was 2.07 and the Dissolving capacity ([2]; pH = 4 solution) was “Slightly soluble”. For the same compound, the “pH value (1)” value [2, 8] was 5.02, the “pH value (2)” value [2, 8] was 5.10 and the Dissolving capacity ([2]; pH = 6 solution) was “Sparingly”. The “pH value (1)” value [2, 9] was 6.11, the “pH value (2)” value [2, 9] was 6.14 and the solubility ([2]; pH = 6 solution, pH 6, aqueous buffer, pH = 6 solution, read-out: Solubility (1)) was 46 µg/mL (≈ 136 µM). For the same compound, the solubility ([2]; pH = 6 solution, pH 6, aqueous buffer, pH = 6 solution, read-out: Solubility (2)) was 50.2 µg/mL (≈ 148 µM), the Dissolving capacity ([2]; pH = 8 solution) was “Sparingly” and the “pH value (1)” value [2, 10] was 8.06. For the same compound, the “pH value (2)” value [2, 10] was 8.07, the solubility ([2]; pH = 8 solution, pH 8, aqueous buffer, pH = 8 solution, read-out: Solubility (1)) was less than 10 µg/mL and the solubility ([2]; pH = 8 solution, pH 8, aqueous buffer, pH = 8 solution, read-out: Solubility (2)) was less than 10 µg/mL. For the same compound, the changes after anatomy (SD rats) was “no obvious drug-related changes”, the MTD [3] was 1000 mg/kg and the “Mass area, rat” value [4, 11] was 115.4. The “kinds of metabolites detected in rat liver microsome” value ([4]; 60 min incubation) was “eight”, the “effect on contraction amplitude and area under contraction curve in rat seminal vesicle induced by electrical stimulation” value (rat seminal vesicle) was “no significant inhibitive effect” and the “Mass area, Human” value [5, 11] was 416.8. For the same compound, the “kinds of metabolites detected in human liver microsome” value ([5]; 60 min incubation) was “Four” and the “metabolic stability in human liver microsome” value ([5]; 60 min incubation) was “relatively higher”.
